The subject of this assay is CD8+ T cells. Nature of the assay: In vitro immunogenicity: T-cell priming with aAPCs loaded with peptide/MHC complexes and anti-CD28, pMHC multimer readout. The class given is cell-based, human. To be noted: HLA-A*02 healthy donor CD8+ T cells, multimer staining. The text has this: In order to obtain information regarding the immunogenicity of the TUMAPs of the present invention, the inventors performed investigations using an in vitro T-cell priming assay based on repeated stimulations of CD8+ T cells with artificial antigen presenting cells (aAPCs) loaded with peptide/MHC complexes and anti-CD28 antibody.
In order to perform in vitro stimulations by artificial antigen presenting cells loaded with peptide-MHC complex (pMHC) and anti-CD28 antibody, the inventors first isolated CD8+ T cells from fresh HLA-A*02 leukapheresis products via positive selection using CD8 microbeads (Miltenyi Biotec, Bergisch-Gladbach, Germany) of healthy donors obtained from the University clinics Mannheim, Germany, after informed consent.
PBMCs and isolated CD8+ lymphocytes were incubated in T-cell medium (TCM) until use consisting of RPMI-Glutamax (Invitrogen, Karlsruhe, Germany) supplemented with 10% heat inactivated human AB serum (PAN-Biotech, Aidenbach, Germany), 100 U/ml Penicillin/100 μg/ml Streptomycin (Cambrex, Cologne, Germany), 1 mM sodium pyruvate (CC Pro, Oberdorla, Germany), 20 μg/ml Gentamycin (Cambrex). 2.5 ng/ml IL-7 (PromoCell, Heidelberg, Germany) and 10 U/ml IL-2 (Novartis Pharma, Nürnberg, Germany) were also added to the TCM at this step.
Generation of pMHC/anti-CD28 coated beads, T-cell stimulations and readout was performed in a highly defined in vitro system using four different pMHC molecules per stimulation condition and 8 different pMHC molecules per readout condition.
The purified co-stimulatory mouse IgG2a anti human CD28 Ab 9.3 (Jung et al., 1987) was chemically biotinylated using Sulfo-N-hydroxysuccinimidobiotin as recommended by the manufacturer (Perbio, Bonn, Germany). Beads used were 5.6 μm diameter streptavidin coated polystyrene particles (Bangs Laboratories, Illinois, USA).
800.000 beads/200 μl were coated in 96-well plates in the presence of 4×12.5 ng different biotin-pMHC, washed and 600 ng biotin anti-CD28 were added subsequently in a volume of 200 μl. Stimulations were initiated in 96-well plates by co-incubating 1×10^6 CD8+ T cells with 2×10^5 washed coated beads in 200 μl TCM supplemented with 5 ng/ml IL-12 (PromoCell) for 3 days at 37° C. Half of the medium was then exchanged by fresh TCM supplemented with 80 U/ml IL-2 and incubating was continued for 4 days at 37° C. This stimulation cycle was performed for a total of three times. For the pMHC multimer readout using eight different pMHC molecules per condition, a two-dimensional combinatorial coding approach was used as previously described (Andersen et al., 2012) with minor modifications encompassing coupling to 5 different fluorochromes. Finally, multimeric analyses were performed by staining the cells with Live/dead near IR dye (Invitrogen, Karlsruhe, Germany), CD8-FITC antibody clone SK1 (BD, Heidelberg, Germany) and fluorescent pMHC multimers. For analysis, a BD LSRII SORP cytometer equipped with appropriate lasers and filters was used. Peptide specific cells were calculated as percentage of total CD8+ cells. Evaluation of multimeric analysis was done using the FlowJo software (Tree Star, Oregon, USA). In vitro priming of specific multimer+CD8+ lymphocytes was detected by comparing to negative control stimulations.
“189 (RLFEEVLGV; listed as Homo sapiens) [compound 189]”: the wells entry is given as “++ (20%-49% = ++)”.
In the case of “190 (SLYKGLLSV; listed as Homo sapiens) [compound 190]”, the wells result is recorded as “++ (20%-49% = ++)”.
For the substance “191 (ALSVLRLAL; listed as Homo sapiens) [compound 191]”, the wells entry is recorded as “++ (20%-49% = ++)”.
For the substance “192 (GLAALAVHL; listed as Homo sapiens) [compound 192]”, the wells entry is “++ (20%-49% = ++)”.
“193 (FLLAEDTKV; listed as Homo sapiens) [compound 193]”: the wells entry is given as “++ (20%-49% = ++)”.
As to “194 (LLWGNLPEI; listed as Homo sapiens) [compound 194]”, the wells result is “++ (20%-49% = ++)”.
“195 (FLFVDPELV; listed as Homo sapiens) [compound 195]”: the wells result is “+++ (50%-69% = +++)”.
On to “196 (ILVDWLVQV; listed as Homo sapiens) [compound 196]”, for which the wells entry is “++ (20%-49% = ++)”.
For “197 (VLLNEILEQV; listed as Homo sapiens) [compound 197]”, the wells result was “++ (20%-49% = ++)”.
On to “198 (KIQEILTQV; listed as Homo sapiens) [compound 198]”, for which the wells entry is given as “++ (20%-49% = ++)”.
